Measured values as given in patent US12661353B2, “SPT5 inhibitors and uses thereof” (Yeda Research and Development Co. Ltd., priority 2020, dated 2026).

What was measured:
mutant (Q111) Htt [1] = test: Htt mRNA levels in Q111 striatal cells, qPCR; type: cell-based, mouse; conditions: Q111 striatal cells, 48 hours; further: key: + represent a statistically significant effect
Procedure: Cell culture—HEK293T, HeLa, MCF7, Jurkat and mouse embryonic fibroblasts (MEFs) cells were grown and maintained in Dulbecco's modified Eagle's medium supplemented with 10% fetal calf serum (Gibco) and 1% penicillin-streptomycin. To avoid NF-κB activity, HeLa cells were kept from reaching confluence and re-plated no more than 10 times following initial thawing. To induce NF-κB activity, cells were treated with […] recombinant human TNF-α (Peprotech) for the indicated times. STHdh Q111 and STHdh Q7 striatal cell lines (Coriell Institute for Medical Research) were grown in Dulbecco's modified Eagle's medium supplemented with 10% fetal calf serum (Gibco), 1% penicillin-streptomycin and 0.4 mg/ml G418 at 33° C. The cells were re-plated no more than 5-6 times, as recommended.
Huntington's disease (HD) is an inherited genetic disorder caused by expansion trinucleotide CAG repeats (36 and higher) encoding glutamine (Q) in the huntingtin (Htt) gene. Expression of the mutant gene in neurons of the striatum and the frontal cortex leads to degeneration of neuronal cells that control body movements, emotions and intellect. […] To examine the potential effect of SPIs in this context, striatal cell lines established from wild type (Q7) or from mutant (Q111) Htt knock-in mice were used. In these cell lines the coding region of the first exon of the mouse Htt gene was replaced with the same region of human wild type (Q7) or mutant (Q111) Htt, as schematically shown in FIG. 6A. The two cell lines were treated for 48 hours with the identified SPIs and following the levels of Htt mRNA were determined.
The compounds were tested as described in Example 4 hereinabove. In brief, Q111 (or Q7, where indicated) expressing Striatal cells were treated with the tested compound at the indicated concentrations for 48 hours. Then, RNA was extracted and levels of Htt mRNA were determined by qRT-PCR and normalized to β-actin. The data was analysed using GraphPad Prism software.

mutant (Q111) Htt [2] = test: Newly synthesized Htt transcripts, 4sU metabolic labeling, Q111 cells; type: cell-based, mouse; conditions: 4sU for 2 hours
Procedure: Metabolic labeling of newly synthesized RNA with 4-thiouridine (4sU)—STHdh Q111 and STHdh Q7 cells (collected from 10 cm dishes) were treated for 30 minutes with DMSO (vehicle control) or the tested SPI compound (e.g., SPJ-21). Following, 4-thiouridine (4sU, 150 μM final concentration) was added for additional 2 hours. The labeling was terminated by removing the 4sU-containing medium and washing the cells 3 times with phosphate-buffered saline (PBS). Total RNA was extracted as described above. […]
Huntington's disease (HD) is an inherited genetic disorder caused by expansion trinucleotide CAG repeats (36 and higher) encoding glutamine (Q) in the huntingtin (Htt) gene. […] The two cell lines were treated for 48 hours with the identified SPIs and following the levels of Htt mRNA were determined. […] Moreover, the levels measured from the second exon relative to the first were fairly higher in Q7 compared to Q111 and this small difference was kept all along the gene. […]
In assays conducted for showing that the selective effect on mutant Htt is at the transcription level, the cells were metabolically labeled with 4-thio-uridine (4sU) for 2 hours in the presence of DMSO of the indicated SPI analogs. […] Newly synthesized Htt transcript levels were determined by RT-qPCR.

His-eIF4E = biological target: T1, His-eIF4E (Homo sapiens, UniProt P06730); test: Binding assay by intrinsic fluorescence of His-eIF4E (negative control); conditions: negative control protein
T1 construct: His tag; made in house; host or cells: E. coli; purified by nickel agarose beads
T1 sequence (P06730 whole entry): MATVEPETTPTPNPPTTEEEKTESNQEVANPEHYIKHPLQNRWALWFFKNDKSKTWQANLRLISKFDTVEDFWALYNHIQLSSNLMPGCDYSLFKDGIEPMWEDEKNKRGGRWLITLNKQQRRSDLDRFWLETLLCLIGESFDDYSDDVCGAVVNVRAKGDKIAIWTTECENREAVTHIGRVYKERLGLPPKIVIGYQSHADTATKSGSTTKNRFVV
Procedure: Binding assay—In order to measure binding of the indicated compound to Spt5 and/or Pol II; Spt5-Spt4 or Rpb1 fused to a histidine (His) tag were expressed in E. coli (SEQ ID Nos: 2-3, 5-6 and 81) and purified on nickel agarose beads as described in Ashkenazi et al. 2016. The proteins were incubated for 10 minutes with increasing concentrations of the indicated compound in a black 384 wells microplate in a total volume of 20 μl. Binding was assessed by measuring the changes in the intrinsic fluorescence (280 nm) using Cytation™ 5 (BioTek).
Direct interaction with either the Spt5 or the Rpb1 CC domain of SPI-21 and SPI-18 was further validated. His-Rpb1 and His-Spt5 (fused to Spt4 to increase its stability) and His-eIF4E, used as a negative control, were each expressed in E. coli and purified by nickel agarose beads. Using the purified proteins, fluorescence intensity measurements were performed in the presence of increasing concentrations of SPI-21 and SPI-18. This method analyzes binding by monitoring the changes in the intrinsic fluorescence of the proteins as a consequence of conformational changes. Spt5, Rpb1, and eIF4E display significant intrinsic fluorescence, as expected from the presence of aromatic residues in all of them. […] These findings are consistent with the direct interaction of the identified SPI compounds with the Spt5 and Rpb1 proteins.

SMILES: Nc1ccccc1SC(CC(=O)c1cccs1)c1cccs1 (stereo not shown) [SPI-18]
- Down-regulating transcription of Mutant Htt (i.e. inhibiting transcription elongation of mutant Htt gene induced by Spt5) (mutant (Q111) Htt [1]): +

SMILES: COc1ccc(C=CC(=O)c2cc(O)ccc2O)cc1 [SPI-21]
- levels of newly synthesized Q111 Htt (mutant (Q111) Htt [2]): diminished
- Down-regulating transcription of Mutant Htt (i.e. inhibiting transcription elongation of mutant Htt gene induced by Spt5) (mutant (Q111) Htt [1]): +
- effect on intrinsic fluorescence of eIF4E (His-eIF4E): no significant effect
